Values quoted from earlier work, collected in patent publication US20070293529A1, “Tetrasubstituted ureas as modulators of 11-beta hydroxyl steroid dehydrogenase type 1” (priority 2006, published 2007).

How the values were obtained:
[1] = target: T1, 11βHSD1 in the eye (Homo sapiens, UniProt P28845); conditions: healthy volunteers, after seven days of carbenoxolone treatment
T1 construct: host or cells: endogenous enzyme in the eye (NPE cells) of the treated volunteers

[2] = target: T2, 11βHSD1 (Homo sapiens, UniProt P28845); conditions: two randomized, double-blind, placebo-controlled crossover studies
T2 construct: host or cells: endogenous enzyme of the treated subjects (brain)
T2 sequence (P28845 whole entry): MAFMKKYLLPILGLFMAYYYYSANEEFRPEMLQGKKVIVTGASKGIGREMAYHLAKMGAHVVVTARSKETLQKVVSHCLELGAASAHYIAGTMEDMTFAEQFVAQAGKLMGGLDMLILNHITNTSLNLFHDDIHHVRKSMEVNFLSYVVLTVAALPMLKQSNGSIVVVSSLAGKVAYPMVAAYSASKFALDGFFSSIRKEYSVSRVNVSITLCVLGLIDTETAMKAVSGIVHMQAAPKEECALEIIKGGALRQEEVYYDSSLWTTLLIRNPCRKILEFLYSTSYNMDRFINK

[3] = test system: pancreatic islet cells of ob/ob mice
[4] = test system: bone nodule formation
[5] = test system: primary hippocampal cells

T1 sequence (P28845 whole entry): as above

- reduction of intra-ocular pressure (IOP) [1]: 18%
SMILES: CC1(C)[C@@H](OC(=O)CCC(=O)O)CC[C@]2(C)[C@H]3C(=O)C=C4[C@@H]5C[C@@](C)(C(=O)O)CC[C@]5(C)CC[C@@]4(C)[C@]3(C)CC[C@@H]12 [carbenoxolone]
- verbal fluency and verbal memory [2]: improved verbal fluency and verbal memory
- glucose-stimulated insulin release [3]: improves glucose-stimulated insulin release
- negative effects of glucocorticoids on bone nodule formation [4]: attenuate the negative effects of glucocorticoids on bone nodule formation
- protection from glucocorticoid-mediated exacerbation of excitatory amino acid neurotoxicity [5]: protects the cells from glucocorticoid-mediated exacerbation of excitatory amino acid neurotoxicity
